Laboratory results reported in patent US9751887B2, “Imidazo[1,2-b]pyridazine derivatives as kinase inhibitors” (Daiichi Sankyo Company, Limited, priority 2012, dated 2017).

Assays:
ROS1 [1] = target: T1, ROS1 (Homo sapiens, UniProt P08922); test: ROS1 autophosphorylation inhibitory activity evaluation (ADP-Glo); assay type: biochemical; conditions: 200 nM inactive ROS1, ATP 1 mM, 25° C. 1.5 hours, ADP generated, four separate measurements
T1 construct: purchased Carna Biosciences 08-163
In short: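 IC50 was derived by curve fitting of ADP output measured with ADP-Glo reagents. The output reflects ROS1 self-phosphorylation over 1.5 hours at 25° C. Buffer was HEPES pH 7.5 with MgCl2, Brij-58 and DTT, and ATP was 1 mM final.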

[2] = system: HCC78 cells having ROS1 fusion gene; test: HCC78 cell growth assay (CellTiter-Glo); assay type: cell-based; conditions: Homo sapiens, HCC78, 72 h, 72 hours culture, 2% FBS medium, luminescence, four separate measurements; read-out: growth inhibitory effect on HCC78 cells having ROS1 fusion gene IC50
ROS1 [3] = target: T1, ROS1; test: ROS1 kinase inhibitory activity evaluation (mobility shift, EZ Reader II); assay type: biochemical; conditions: ROS1 25 pg/μL, FL-Peptide 22 substrate, three separate measurements
Experimental: Next, a substrate reaction solution was prepared. […] Then, the reaction stop solution was added thereto at a concentration of 40 μL/well. Substrate phosphorylation intensity was measured using EZ Reader II (Caliper Life Sciences).

T1 sequence (P08922 28-2347): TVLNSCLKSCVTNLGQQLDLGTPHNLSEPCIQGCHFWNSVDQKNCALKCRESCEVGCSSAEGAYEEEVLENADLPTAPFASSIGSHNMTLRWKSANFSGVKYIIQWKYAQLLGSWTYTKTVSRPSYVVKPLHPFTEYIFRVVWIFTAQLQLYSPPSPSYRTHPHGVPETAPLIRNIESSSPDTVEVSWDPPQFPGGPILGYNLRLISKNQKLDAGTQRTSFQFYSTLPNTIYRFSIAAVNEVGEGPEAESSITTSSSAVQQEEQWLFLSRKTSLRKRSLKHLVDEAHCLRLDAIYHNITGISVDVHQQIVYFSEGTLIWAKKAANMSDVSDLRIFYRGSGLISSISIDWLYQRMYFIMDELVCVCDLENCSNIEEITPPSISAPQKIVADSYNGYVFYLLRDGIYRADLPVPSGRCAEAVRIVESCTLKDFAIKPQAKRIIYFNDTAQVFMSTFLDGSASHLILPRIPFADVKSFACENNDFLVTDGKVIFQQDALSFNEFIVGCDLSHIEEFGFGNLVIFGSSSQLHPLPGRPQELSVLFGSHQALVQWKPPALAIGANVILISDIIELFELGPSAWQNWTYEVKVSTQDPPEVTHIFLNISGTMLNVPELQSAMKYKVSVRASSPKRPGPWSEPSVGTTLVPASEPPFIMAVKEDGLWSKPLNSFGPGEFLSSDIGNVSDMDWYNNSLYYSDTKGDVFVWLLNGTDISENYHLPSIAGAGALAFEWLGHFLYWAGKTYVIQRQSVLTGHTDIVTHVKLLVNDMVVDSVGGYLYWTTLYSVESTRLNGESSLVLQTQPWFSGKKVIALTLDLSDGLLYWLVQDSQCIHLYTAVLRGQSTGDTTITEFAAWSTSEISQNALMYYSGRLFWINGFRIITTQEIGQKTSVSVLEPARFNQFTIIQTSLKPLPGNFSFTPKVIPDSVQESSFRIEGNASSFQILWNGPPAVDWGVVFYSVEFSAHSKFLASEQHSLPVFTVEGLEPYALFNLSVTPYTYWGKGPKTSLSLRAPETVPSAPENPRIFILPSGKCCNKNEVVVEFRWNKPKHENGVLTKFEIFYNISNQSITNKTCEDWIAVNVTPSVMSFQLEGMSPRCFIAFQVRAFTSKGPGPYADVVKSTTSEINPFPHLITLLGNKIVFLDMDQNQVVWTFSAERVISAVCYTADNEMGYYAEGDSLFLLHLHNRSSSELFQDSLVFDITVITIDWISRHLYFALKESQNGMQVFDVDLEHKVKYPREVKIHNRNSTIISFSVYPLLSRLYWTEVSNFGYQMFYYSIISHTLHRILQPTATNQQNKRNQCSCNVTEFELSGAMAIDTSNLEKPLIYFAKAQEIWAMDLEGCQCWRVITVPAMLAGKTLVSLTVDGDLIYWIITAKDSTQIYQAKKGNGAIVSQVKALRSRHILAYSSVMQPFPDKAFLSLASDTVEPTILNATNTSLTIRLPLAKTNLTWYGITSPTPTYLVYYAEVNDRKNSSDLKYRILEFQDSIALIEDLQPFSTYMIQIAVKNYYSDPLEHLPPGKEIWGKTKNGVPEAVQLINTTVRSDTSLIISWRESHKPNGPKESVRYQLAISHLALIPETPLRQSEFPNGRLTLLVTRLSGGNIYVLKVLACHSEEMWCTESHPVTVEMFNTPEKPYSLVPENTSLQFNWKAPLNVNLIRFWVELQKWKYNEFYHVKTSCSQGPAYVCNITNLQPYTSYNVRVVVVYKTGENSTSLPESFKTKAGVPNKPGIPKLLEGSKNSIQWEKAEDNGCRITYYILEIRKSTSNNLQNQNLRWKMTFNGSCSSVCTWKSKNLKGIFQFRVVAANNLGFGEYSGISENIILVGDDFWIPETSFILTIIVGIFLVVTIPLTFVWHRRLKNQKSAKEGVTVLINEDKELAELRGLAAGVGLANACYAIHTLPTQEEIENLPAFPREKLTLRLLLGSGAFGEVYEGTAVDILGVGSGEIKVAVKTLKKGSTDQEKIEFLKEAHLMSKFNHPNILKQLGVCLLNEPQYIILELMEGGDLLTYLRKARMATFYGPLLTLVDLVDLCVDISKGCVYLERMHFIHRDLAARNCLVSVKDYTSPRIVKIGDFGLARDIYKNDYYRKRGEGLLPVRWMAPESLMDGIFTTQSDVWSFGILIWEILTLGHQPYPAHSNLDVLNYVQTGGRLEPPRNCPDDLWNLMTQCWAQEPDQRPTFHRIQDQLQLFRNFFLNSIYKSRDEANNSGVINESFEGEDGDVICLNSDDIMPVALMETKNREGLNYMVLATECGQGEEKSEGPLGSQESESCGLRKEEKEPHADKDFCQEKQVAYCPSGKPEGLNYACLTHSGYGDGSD

SMILES | IC50 (ROS1 [1]) [nM] | IC50 [2] [nM] | IC50 (ROS1 [3]) [nM]
Fc1cccc(COc2ccc3ncc(-c4ccc(O[C@@H]5CCNC5)cc4)n3n2)c1 [Example 13, 6-[(3-Fluorophenyl)methoxy]-3-[4-[(3R)-pyrrolidin-3-yl]oxyphenyl]imidazo[1,2-b]pyridazine] | 100 to 150 | 100 to 600 | 1 to 10
C[C@@H](Nc1ccc2ncc(-c3ccc(OC[C@@H](N)CO)cc3)n2n1)c1cccc(F)c1 [Example 56, (2S)-2-Amino-3-[4-[6-[[(1R)-1-(3-fluorophenyl)ethyl]amino]imidazo[1,2-b]pyridazin-3-yl]phenoxy]propan-1-ol] | < 20 | < 20 | < 1
C[C@H](N)COc1cccc(-c2cnc3ccc(N[C@H](C)c4cccc(F)c4)nn23)c1 [Example 65, 3-[3-[(2S)-2-Aminopropoxy]phenyl]-N-[(1R)-1-(3-fluorophenyl)ethyl]imidazo[1,2-b]pyridazin-6-amine] | < 20 | 20 to 100 | 1 to 10
NC1CCN(c2ccc(-c3cnc4ccc(OCc5cccc(F)c5)nn34)cc2)C1=O (stereo not drawn) [Example 75, 3-Amino-1-[4-[6-[(3-fluorophenyl)methoxy]imidazo[1,2-b]pyridazin-3-yl]phenyl]pyrrolidin-2-one] | 20 to 100 | 100 to 600 | 1 to 10
c1ccc(CNc2ccc3ncc(-c4ccc(OC[C@@H]5CCCN5)cc4)n3n2)cc1 [Example 1, N-Benzyl-3-[4-[[(2S)-pyrrolidin-2-yl]methoxy]phenyl]imidazo[1,2-b]pyridazin-6-amine] | 20 to 100 | 20 to 100 | 1 to 10
C[C@@H](Nc1ccc2ncc(-c3ccc(O[C@H]4C[C@H](N)C4)cc3)n2n1)c1cccc(F)c1 [Example 51] | < 20 | 20 to 100 | 1 to 10
C[C@@H](N)COc1cccc(-c2cnc3ccc(N[C@H](C)c4cccc(F)c4)nn23)c1 [Example 60, 3-[3-[(2R)-2-Aminopropoxy]phenyl]-N-[(1R)-1-(3-fluorophenyl)ethyl]imidazo[1,2-b]pyridazin-6-amine] | < 20 | 20 to 100 | 1 to 10
c1ccc(CNc2ccc3ncc(-c4ccc(OC[C@@H]5CCNC5)cc4)n3n2)cc1 [Example 5, N-Benzyl-3-[4-[[(3R)-pyrrolidin-3-yl]methoxy]phenyl]imidazo[1,2-b]pyridazin-6-amine] | 20 to 100 | 20 to 100 | 1 to 10
C[C@@H](Nc1ccc2ncc(-c3ccc(OCCNC4CC4)cc3)n2n1)c1cccc(F)c1 [Example 37, 3-[4-[2-(Cyclopropylamino)ethoxy]phenyl]-N-[(1R)-1-(3-fluorophenyl)ethyl]imidazo[1,2-b]pyridazin-6-amine] | 20 to 100 | 20 to 100 | < 1
CN[C@H]1CC(=O)N(c2ccc(-c3cnc4ccc(O[C@H](C)c5cncc(F)c5)nn34)cc2)C1 [Example 108, (4S)-1-[4-[6-[(1R)-1-(5-Fluoro-3-pyridyl)ethoxy]imidazo[1,2-b]pyridazin-3-yl]phenyl]-4-(methylamino)pyrrolidin-2-one] | 20 to 100 | 20 to 100 | 1 to 10
CC(Oc1ccc2ncc(-c3ccc(N4C[C@@H](N)CC4=O)cc3)n2n1)c1cn(C(F)F)nn1 (stereo partly drawn) [Example 115, (4S)-4-Amino-1-[4-[6-[1-[1-(difluoromethyl)triazol-4-yl]ethoxy]imidazo[1,2-b]pyridazin-3-yl]phenyl]pyrrolidin-2-one] | 100 to 150 | 100 to 600 | 10 to 60
C[C@@H](Nc1ccc2ncc(-c3ccc(OCC4(N)CC4)cc3)n2n1)c1cccc(F)c1 [Example 39, 3-[4-[(1-Aminocyclopropyl)methoxy]phenyl]-N-[(1R)-1-(3-fluorophenyl)ethyl]imidazo[1,2-b]pyridazin-6-amine] | < 20 | 20 to 100 | < 1
C[C@@H](Nc1ccc2ncc(-c3ccc(F)c(OC[C@@H]4CCN4)c3)n2n1)c1cccc(F)c1 [Example 64, 3-[3-[[(2S)-Azetidin-2-yl]methoxy]-4-fluoro-phenyl]-N-[(1R)-1-(3-fluorophenyl)ethyl]imidazo[1,2-b]pyridazin-6-amine] | 100 to 150 | 100 to 600 | 1 to 10
Cc1cc(-c2cnc3ccc(OC(C)c4cncc(F)c4)nn23)ccc1N1C[C@@H](N)CC1=O (stereo partly drawn) [Example 111] | 20 to 100 | 20 to 100 | 1 to 10
C[C@@H](Nc1ccc2ncc(-c3ccc(O[C@@H]4CCC[C@@H]4N)cc3)n2n1)c1cccc(F)c1 [Example 36, 3-[4-[(1R,2S)-2-Aminocyclopentoxy]phenyl]-N-[(1R)-1-(3-fluorophenyl)ethyl]imidazo[1,2-b]pyridazin-6-amine] | < 20 | 100 to 600 | < 1
C[C@@H](Nc1ccc2ncc(-c3ccc(OCC(N)CO)cc3)n2n1)c1cccc(F)c1 (stereo partly drawn) [Example 45, 2-Amino-3-[4-[6-[[(1R)-1-(3-fluorophenyl)ethyl]amino]imidazo[1,2-b]pyridazin-3-yl]phenoxy]propan-1-ol] | < 20 | < 20 | < 1
C[C@@H](Nc1ccc2ncc(-c3ccc(OC[C@@H]4CCN4)cc3F)n2n1)c1cccc(F)c1 [Example 43, 3-[4-[[(2S)-Azetidin-2-yl]methoxy]-2-fluoro-phenyl]-N-[(1R)-1-(3-fluorophenyl)ethyl]imidazo[1,2-b]pyridazin-6-amine] | < 20 | < 20 | < 1
C[C@@H](Nc1ccc2ncc(-c3ccc(O[C@H]4CCC[C@H]4N)cc3)n2n1)c1cccc(F)c1 [Example 40, 3-[4-[(1S,2R)-2-Aminocyclopentoxy]phenyl]-N-[(1R)-1-(3-fluorophenyl)ethyl]imidazo[1,2-b]pyridazin-6-amine] | < 20 | < 20 | < 1

Continued, values first:

IC50 (ROS1 [1]) [nM] | IC50 [2] [nM] | IC50 (ROS1 [3]) [nM] | SMILES
< 20 | 20 to 100 | < 1 | CC(Oc1ccc2ncc(-c3ccc(N4C[C@@H](N)CC4=O)cc3)n2n1)c1cc(F)ccc1-n1nccn1 (stereo partly drawn) [Example 114, (4S)-4-Amino-1-[4-[6-[1-[5-fluoro-2-(triazol-2-yl)phenyl]ethoxy]imidazo[1,2-b]pyridazin-3-yl]phenyl]pyrrolidin-2-one]
< 20 | 20 to 100 | 1 to 10 | CCN(Cc1cccc(F)c1)c1ccc2ncc(-c3ccc(N4C[C@@H](N)CC4=O)cc3)n2n1 [Example 100]
< 20 | 100 to 600 | 1 to 10 | CC(Oc1ccc2ncc(-c3ccc(N4C[C@@H](N)CC4=O)cc3)n2n1)c1cccc(F)c1F (stereo partly drawn) [Example 102, (4S)-4-Amino-1-[4-[6-[1-(2,3-difluorophenyl)ethoxy]imidazo[1,2-b]pyridazin-3-yl]phenyl]pyrrolidin-2-one]
20 to 100 | 100 to 600 | 1 to 10 | CN(Cc1ccccc1)c1ccc2ncc(-c3ccc(N4C[C@@H](N)CC4=O)cc3)n2n1 [Example 94, (4S)-4-Amino-1-[4-[6-[benzyl(methyl)amino]imidazo[1,2-b]pyridazin-3-yl]phenyl]pyrrolidin-2-one]
20 to 100 | 100 to 600 | 1 to 10 | N#Cc1cccc(COc2ccc3ncc(-c4ccc(N5C[C@@H](N)CC5=O)cc4)n3n2)c1 [Example 101, 3-[[3-[4-[(4S)-4-Amino-2-oxopyrrolidin-1-yl]phenyl]imidazo[1,2-b]pyridazin-6-yl]oxymethyl]benzonitrile]
< 20 | 20 to 100 | < 1 | CN(Cc1cccc(F)c1)c1ccc2ncc(-c3ccc(N4CC(N)CC4=O)cc3)n2n1 (stereo not drawn) [Example 82, 4-Amino-1-[4-[6-[(3-fluorophenyl)methyl-methylamino]imidazo[1,2-b]pyridazin-3-yl]phenyl]pyrrolidin-2-one]
< 20 | < 20 | 1 to 10 | CN(Cc1cncc(F)c1)c1ccc2ncc(-c3ccc(N4C[C@@H](N)CC4=O)cc3)n2n1 [Example 118, (4S)-4-Amino-1-[4-[6-[(5-fluoro-3-pyridyl)methyl-methylamino]imidazo[1,2-b]pyridazin-3-yl]phenyl]pyrrolidin-2-one]
< 20 | < 20 | 1 to 10 | CN(Cc1cncc(F)c1)c1ccc2ncc(-c3ccc(N4CC(C)(N)CC4=O)cc3)n2n1 (stereo not drawn) [Example 119, 4-Amino-1-[4-[6-[(5-fluoro-3-pyridyl)methyl-methylamino]imidazo[1,2-b]pyridazin-3-yl]phenyl]-4-methylpyrrolidin-2-one]
20 to 100 | < 20 | 1 to 10 | CN(Cc1cc(F)ccc1F)c1ccc2ncc(-c3ccc(N4C[C@@H](N)CC4=O)cc3)n2n1 [Example 97, (4S)-4-Amino-1-[4-[6-[(2,5-difluorophenyl)methyl-methylamino]imidazo[1,2-b]pyridazin-3-yl]phenyl]pyrrolidin-2-one]
20 to 100 | 20 to 100 | 1 to 10 | CN(Cc1cncc(F)c1Cl)c1ccc2ncc(-c3ccc(N4C[C@@H](N)CC4=O)cc3)n2n1 [Example 126, (4S)-4-Amino-1-[4-[6-[(4-chloro-5-fluoro-3-pyridyl)methyl-methylamino]imidazo[1,2-b]pyridazin-3-yl]phenyl]pyrrolidin-2-one]
